In US10344026B2, “Compositions and methods of targeting mutant K-ras” (NANTBIO, INC., priority 2017, dated 2019):
Values belong to the compound of their own block, whether it stands above or below them.

Legend:
Assay type in all cases: cell-based
wild type K-Ras = target: T1, wild type K-Ras (Homo sapiens, UniProt P01116); assay: G-LISA Ras activation, 293H cells transfected with Ras wild-type, EGF stimulated; settings: compound 1 hour, then 100 ng/ml EGF 2 minutes
T1 construct: expressed in transfected cells; host or cells: 293H cells
T1 sequence (P01116 whole entry): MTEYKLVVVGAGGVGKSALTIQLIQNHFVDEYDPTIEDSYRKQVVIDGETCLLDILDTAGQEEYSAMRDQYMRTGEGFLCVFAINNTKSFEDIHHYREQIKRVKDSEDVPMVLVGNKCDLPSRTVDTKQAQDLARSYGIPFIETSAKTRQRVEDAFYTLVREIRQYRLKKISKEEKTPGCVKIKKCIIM
Protocol: (§1) 293H cells were seeded in 6-wells at 0.6×10^6 cells per well and transfected next day with 5 μg of Ras wild-type, or G12C, G12D or G12V mutant DNA plasmid vector using transfection reagent Lipofectamine 3000. Next day cells were treated with 3.125-25 μM of Ras compounds for 1 hour. Wild-type transfected cells were subsequently treated with 100 ng/ml EGF for 2 minutes. Cells were washed once in ice-cold PBS, lysed in complete lysis buffer on ice, and processed by G-LISA according to Cytoskeleton protocol.

K-Ras G12D = target: T2, K-Ras G12D (Homo sapiens, UniProt P01116, G12D); assay: G-LISA Ras activation, 293H cells transfected with G12D mutant; settings: compound 1 hour
T2 construct: expressed in transfected cells; host or cells: 293H cells
T2 sequence (P01116 whole entry G12D): as the sequence (P01116 whole entry) above, with G12D counted along it
Protocol: as §1

[1] = test system: U87-MG (K-Ras wild type cell line); assay: Viability assay (CellTiterBlue, 72 hr) U87-MG; settings: Homo sapiens, U-87 MG, GI50, CellTiterBlue, U87-MG K-Ras wild-type
Protocol: (§2) Viability assays were performed on exemplary compounds and Table 2 below lists exemplary results for selected compounds tested on K-Ras wild type cell lines (Ishikawa, U87-MG, HCC827, and A375) and various K-Ras mutant cell lines (Panc1-G12D; Panc10.05-G12D; HCT116-G31D). Results are expressed in μM and corresponding structures are shown in FIGS. 2A-2G and Examples 1-152, above.
(§3) Cells are counted and seeded at 1000 cells/36 ul medium/well into 384-well microplates. Cells are returned to 37° C. CO2 incubator for 18 hr. Drug is made as 200× in DMSO and diluted into medium to 10×. To each well is added 4 ul 10× drug, and plates are returned to the incubator. Final assay DMSO concentration is 0.5%. After 72 hr, 8 ul CellTiterBlue (Promega) is added to each well. After 3 hr, fluorescence (Ex550/Em590) is determined on the Victor Plate Reader (Perkin Elmer). Assay range is determined by DMSO control (100% viability) and 100 uM tamoxifen (0% viability). GI50 values are calculated using Graphpad Prism.

[2] = test system: HCC827 (K-Ras wild type cell line); assay: Viability assay (CellTiterBlue, 72 hr) HCC827; settings: Homo sapiens, GI50, CellTiterBlue, HCC827 K-Ras wild-type
Protocol: as §2, §3

Panc1-G12D = assay: Viability assay (CellTiterBlue, 72 hr) Panc1; settings: Homo sapiens, PANC-1, GI50, CellTiterBlue, Panc1 K-Ras G12D, read-out: 72 hr Cell Viability Panc1 (G12D)
Protocol: as §2, §3

Panc10.05-G12D = assay: Viability assay (CellTiterBlue, 72 hr) Panc10.05; settings: Homo sapiens, Panc1005, GI50, CellTiterBlue, Panc10.05 K-Ras G12D, read-out: 72 hr Cell Viability Panc10.05 (G12D)
Protocol: as §2, §3

HCT116-G31D = assay: Viability assay (CellTiterBlue, 72 hr) HCT116; settings: Homo sapiens, HCT-116, GI50, CellTiterBlue, HCT116 K-Ras G13D, read-out: 72 hr Cell Viability HCT116 (G13D)
Protocol: as §2, §3

[3] = test system: Ishikawa (K-Ras wild type cell line); assay: Viability assay (CellTiterBlue, 72 hr) Ishikawa; settings: Homo sapiens, GI50, CellTiterBlue, Ishikawa K-Ras wild-type
Protocol: as §2, §3

SMILES: Cc1nc(C)c(C(=O)Nc2nc(-c3ccc4c(c3)CCC(=O)N4Cc3cncc4ccccc34)cs2)o1 [Compound 82, N-(4-(1-(isoquinolin-4-ylmethyl)-2-oxo-1,2,3,4-tetrahydroquinolin-6-yl)thiazol-2-yl)-2,4-dimethyloxazole-5-carboxamide]
- IC50 (wild type K-Ras): > 25 µM
- IC50 (K-Ras G12D): 24.6 µM
- IC50 [3]: 4 µM
- IC50 [1]: 13 µM
- IC50 [2]: > 25 µM
- IC50 (Panc1-G12D): > 25 µM
- IC50 (Panc10.05-G12D): > 25 µM
- IC50 (HCT116-G31D): 10 µM

SMILES: COc1cccc(CN2C(=O)CCc3cc(-c4csc(NC(=O)c5oc(C)nc5C)n4)ccc32)c1 [Compound 76, N-(4-(1-(3-methoxybenzyl)-2-oxo-1,2,3,4-tetrahydroquinolin-6-yl)thiazol-2-yl)-2,4-dimethyloxazole-5-carboxamide]
- IC50 (wild type K-Ras): 12.6 µM
- IC50 (K-Ras G12D): 13.9 µM
- IC50 [3]: 5 µM
- IC50 [1]: 2 µM
- IC50 [2]: 17 µM
- IC50 (Panc1-G12D): 5 µM
- IC50 (Panc10.05-G12D): 0.679 µM
- IC50 (HCT116-G31D): 4 µM

SMILES: CCn1cc(C(=O)Nc2nc(-c3ccc4c(c3)CCC(=O)N4)cs2)c(C)n1 [Compound 25, 1-ethyl-3-methyl-N-(4-(2-oxo-1,2,3,4-tetrahydroquinolin-6-yl)thiazol-2-yl)-1H-pyrazole-4-carboxamide]
- IC50 (wild type K-Ras): 10.7 µM
- IC50 (K-Ras G12D): 6.6 µM
- IC50 [3]: 1.1 µM
- IC50 [1]: 2 µM
- IC50 [2]: 7 µM
- IC50 (Panc1-G12D): 2 µM
- IC50 (Panc10.05-G12D): 0.774 µM
- IC50 (HCT116-G31D): 2 µM

SMILES: Cc1nc(C2CCOC2)oc1C(=O)Nc1nc(-c2ccc3c(c2)CCC(=O)N3)cs1 (stereo not drawn) [Compound 10, 4-methyl-N-(4-(2-oxo-1,2,3,4-tetrahydroquinolin-6-yl)thiazol-2-yl)-2-(tetrahydrofuran-3-yl)oxazole-5-carboxamide]
- IC50 (wild type K-Ras): > 25 µM
- IC50 (K-Ras G12D): 22 µM
- IC50 [3]: 2 µM
- IC50 [1]: 5 µM
- IC50 [2]: 23 µM
- IC50 (Panc1-G12D): 4 µM
- IC50 (Panc10.05-G12D): 2 µM
- IC50 (HCT116-G31D): 5 µM

The next lines start with the values.

- IC50 (wild type K-Ras): 16.7 µM
- IC50 (K-Ras G12D): 6.1 µM
- IC50 [1]: 2 µM
- IC50 [2]: 2 µM
- IC50 (Panc1-G12D): 5 µM
- IC50 (Panc10.05-G12D): 5 µM
- IC50 (HCT116-G31D): 2 µM
SMILES: Cc1nc(C)c(C(=O)Nc2nc(-c3ccc4c(c3)CCC(=O)N4CC3CCCN(C(=O)OC(C)(C)C)C3)cs2)o1 (stereo not drawn) [Compound 86, tert-butyl 3-((6-(2-(2,4-dimethyloxazole-5-carboxamido)thiazol-4-yl)-2-oxo-3,4-dihydroquinolin-1(2H)-yl)methyl)piperidine-1-carboxylate]

- IC50 (wild type K-Ras): 16.6 µM
- IC50 (K-Ras G12D): 14.2 µM
- IC50 [1]: 4 µM
- IC50 [2]: 4 µM
- IC50 (Panc1-G12D): 10 µM
- IC50 (Panc10.05-G12D): 8 µM
- IC50 (HCT116-G31D): 3 µM
SMILES: Cc1nc(C)c(C(=O)Nc2nc(-c3ccc4c(c3)CCC(=O)N4Cc3cccc(N)c3)cs2)o1 [Compound 90, N-(4-(1-(3-aminobenzyl)-2-oxo-1,2,3,4-tetrahydroquinolin-6-yl)thiazol-2-yl)-2,4-dimethyloxazole-5-carboxamide]

- IC50 (wild type K-Ras): 19.9 µM
- IC50 (K-Ras G12D): 4.9 µM
- IC50 [1]: 4 µM
- IC50 [2]: 3 µM
- IC50 (Panc1-G12D): 7 µM
- IC50 (Panc10.05-G12D): 7 µM
- IC50 (HCT116-G31D): 4 µM
SMILES: Cc1nc(C2CCOC2)sc1C(=O)Nc1nc(-c2ccc3c(c2)CCC(=O)N3Cc2cccnc2)cs1 (stereo not drawn) [Compound 84, 4-methyl-N-(4-(2-oxo-1-(pyridin-3-ylmethyl)-1,2,3,4-tetrahydroquinolin-6-yl)thiazol-2-yl)-2-(tetrahydrofuran-3-yl)thiazole-5-carboxamide]

- IC50 (wild type K-Ras): 23.4 µM
- IC50 (K-Ras G12D): 7.6 µM
- IC50 [1]: 5 µM
- IC50 [2]: 5 µM
- IC50 (Panc1-G12D): 8 µM
- IC50 (Panc10.05-G12D): 6 µM
- IC50 (HCT116-G31D): 4 µM
SMILES: Cc1nc(C2CCOC2)oc1C(=O)Nc1nc(-c2ccc3c(c2)CCC(=O)N3Cc2cccnc2)cs1 (stereo not drawn) [Compound 85, 4-methyl-N-(4-(2-oxo-1-(pyridin-3-ylmethyl)-1,2,3,4-tetrahydroquinolin-6-yl)thiazol-2-yl)-2-(tetrahydrofuran-3-yl)oxazole-5-carboxamide]
